This passage reports viability results from patent US20130337564A1, “Treatment of Pluripotent Cells” (Janssen Biotech, Inc., priority 2012, published 2013).

The data set is described as follows: MTS viability (toxicity) assay of cells expressing pluripotency markers. The class given is cell-based, human. The following applies: human, MTS on day 4, relative to Activin A + Wnt3a positive control, read-out: % Control (percentage viability of control); for viability at 4 days, 2.5 μM: cmpd conc 2.5 μM; for viability at 4 days, 5 μM: cmpd conc 5 μM; for viability at 4 days, 10 μM: cmpd conc 10 μM. In short, it runs like this: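 A GSK-3B inhibitor library was screened for toxicity to pluripotency-marker-expressing cells. Compound was given in DMEM:F12 with 0.5% FCS and 100 ng/ml Activin A for two days, then replaced by medium with 2% FCS and Activin A. On day 4, MTS absorbance at 490 nm gave viability as percent of Activin A plus Wnt3a control wells.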

In the case of `CN(C)c1cccc(-n2cc(C3=C(c4nn(CCO)c5ccccc45)C(=O)NC3=O)c3ccccc32)c1` [Compound 145, 3-{1-[3-(Dimethylamino)phenyl]-1H-indol-3-yl}-4-[1-(2-hydroxyethyl)-1H-indazol-3-yl]-1H-pyrrole-2,5-dione], the viability at 4 days, 2.5 μM is 94.5% and the viability at 4 days, 5 μM is 68.4%.
Consider `O=C1NC(=O)C(c2cn(CCOCCOCCNC3CCCc4ccccc43)c3ccccc23)=C1c1cn(CCNC2CCCc3ccccc32)c2ccccc12` (centres unmarked) [Compound 144, 3-{1-[2-(1,2,3,4-Tetrahydronaphthalen-1-ylamino)ethyl]-1H-indol-3-yl}-4-(1-{2-[(2-{[2-(1,2,3,4-tetrahydronaphthalen-1-ylamino)ethyl]oxy}ethyl)oxy]ethyl}-1H-indol-3-yl)-1H-pyrrole-2,5-dione], for which the viability at 4 days, 2.5 μM was determined as 23.9%; the viability at 4 days, 5 μM was found to be 2.5%; the viability at 4 days, 10 μM came to 2.4%.
On the same counts, the results for `O=C1NC(=O)C(c2nn(CCCO)c3ccccc23)=C1c1cn(-c2cccnc2)c2ccc(Cl)cc12` [Compound 52, 3-(5-Chloro-1-pyridin-3-yl-1H-indol-3-yl)-4-[1-(3-hydroxypropyl)-1H-indazol-3-yl]-1H-pyrrole-2,5-dione] are 92%, 40.1% and 2.3%.
The corresponding values for `OCCC#Cc1nc(-c2ccc(F)cc2)c(-c2ccncc2)n1CCCc1ccccc1` [Compound 158, 4-[4-(4-Fluorophenyl)-1-(3-phenylpropyl)-5-pyridin-4-yl-1H-imidazol-2-yl]but-3-yn-1-ol] are 93.2%, 96.2% and 66.5%.
The corresponding values for `CC(C)(O)CCn1nc(C2=C(c3cn(-c4cccnc4)c4ccccc34)C(=O)NC2=O)c2ccccc21` [Compound 223, 3-[1-(3-Hydroxy-3-methylbutyl)-1H-indazol-3-yl]-4-(1-pyridin-3-yl-1H-indol-3-yl)-1H-pyrrole-2,5-dione] are 99.6%, 93.9% and 83.7%.
`CN(C)c1ccc(-n2cc(C3=C(c4nn(CCO)c5ccccc45)C(=O)NC3=O)c3cc(Cl)ccc32)cn1` [Compound 148, 3-{5-Chloro-1-[6-(dimethylamino)pyridin-3-yl]-1H-indol-3-yl}-4-[1-(2-hydroxyethyl)-1H-indazol-3-yl]-1H-pyrrole-2,5-dione]: the viability at 4 days, 2.5 μM was 20.4%; the viability at 4 days, 5 μM worked out at 3.8%; the viability at 4 days, 10 μM came to 3.5%.
The corresponding values for `O=C1NC(=O)C(c2cn(-c3cccnc3)c3ccccc23)=C1c1cn(CCO)c2ccccc12` [Compound 206, 3-[1-(2-Hydroxyethyl)-1H-indol-3-yl]-4-(1-pyridin-3-yl-1H-indol-3-yl)-1H-pyrrole-2,5-dione] are 93.1%, 90.2% and 7.3%.
On the same counts, the results for `O=C1NC(=O)C(c2cn(CCOCCOCCO)c3ccccc23)=C1c1cn(CCO)c2ccccc12` [Compound 110, 3-[1-(2-Hydroxyethyl)-1H-indol-3-yl]-4-{1-[2-({2-[(2-hydroxyethyl)oxy]ethyl}oxy)ethyl]-1H-indol-3-yl}-1H-pyrrole-2,5-dione] are 104%, 98.5% and 81.6%.
On the same counts, the results for `CN(CCO)CCCn1nc(C2=C(c3cn(-c4cccnc4)c4ccccc34)C(=O)NC2=O)c2ccccc21` [Compound 198, 3-(1-{3-[(2-Hydroxyethyl)(methyl)amino]propyl}-1H-indazol-3-yl)-4-(1-pyridin-3-yl-1H-indol-3-yl)-1H-pyrrole-2,5-dione] are 92.5%, 83.8% and 49.7%.

The viability is a read-out of living cells in per cent, often relative to untreated cells.
